Literature values as cited in US20230380414A1, “SYSTEMS, DEVICES AND METHODS FOR DELIVERING AEROSOLIZED FLUOROCARBONS” (BOUNDLESS SCIENCE, LLC, priority 2020, published 2023).
Like-named read-outs stand apart in the source and are kept apart here.

Legend:
[1] = cited from earlier work
[2] = cited from earlier work; for Den: Table 1; for Specific Gravity: partial list of fluorinated and perfluorinated liquids
[3] = cited from earlier work; for Spec. Ht Liq C: liquid
[4] = cited from earlier work; for Enthalpy of Vap. H: Table 1; for enthalpies of vaporization: running text
[5] = Table 1; cited from earlier work
[6] = in water; cited from earlier work
[7] = Table 1; cited from earlier work; remark: listed apart in the source
[8] = @ 20° C.; cited from earlier work
[9] = partial list of fluorinated and perfluorinated liquids
[10] = Other perfluorinated liquids and their boiling points
[11] = commercial hydrofluoroalkanes, unit not given

OCC(F)(F)OC(F)(F)C(F)(F)OC(F)(F)C(F)(F)C(F)(F)C(F)(F)F [1H,1H-Perfluoro-3,6-dioxadecan-1-ol]
Boiling point [1, 9]: 150 °C

FC(F)C(F)(F)C(F)(F)C(F)(F)C(F)(F)C(F)(F)C(F)(F)F [1H-Perfluoroheptane, Pentadecafluoroheptane]
Boiling point [1, 9]: 97 °C

OCC(F)(F)OC(F)(F)C(F)(F)OC(F)(F)C(F)(F)OC(F)(F)C(F)(F)C(F)(F)C(F)(F)F [1H,1H-Perfluoro-3,6,9-trioxatridecan-1-ol]
Boiling point [1, 9]: 175-176 °C

FC(F)C(F)(F)C(F)(F)C(F)(F)C(F)(F)C(F)(F)C(F)(F)C(F)(F)C(F)(F)F [1H-Perfluorononane, Nonadecafluorononane]
Boiling point [1, 9]: 138 °C

FC(F)(F)C(F)(F)C(F)(F)C(F)(F)N(C(F)(F)C(F)(F)C(F)(F)C(F)(F)F)C(F)(F)C(F)(F)C(F)(F)C(F)(F)F [perfluoro tributyl amine]
Boiling point [1, 10]: 178 °C | Boiling point ([1]; Table 2): 178 °C | Boiling point ([1]; Table 4): 178 °C

FC(F)C(F)(F)C(F)(F)C(F)F [1H.4H-Perfluorobutane, Octafluorobutane]
Boiling point [1, 9]: 45 °C

FC(C(F)(F)F)C(F)(F)F [HFA227ea ™]
Boiling point [1, 11]: −17

COC(F)(F)C(F)(F)C(F)(F)F [methyl perfluoropropyl ether]
Boiling point [1, 10]: 34 °C

FC(F)(F)C(F)(F)C(F)(F)C(F)(F)C(F)(F)C(F)(F)F [Perfluorohexane]
Boiling point [1, 10]: 56.0 °C | Boiling point ([1]; Table 2): 56.0 °C | Boiling point ([1]; Table 4): 56.0 °C

FC(F)(F)C(F)(F)C(F)(F)C(F)(F)F [Perfluorobutane]
Den [2]: 1.63 g/mL | Spec Ht gas C [3]: 0.69 KJ/Kg/C | Spec. Ht Liq C [3]: 0.53 KJ/Kg/C | Enthalpy of Vap. H [4]: 88 kJ/kg | enthalpies of vaporization [4]: 88 kJ/kg | Viscosity [5]: 0.012 cPs | Boiling point [1, 10]: −1.7 °C | Boiling point ([1]; Table 1): −1.8 °C | Boiling point ([1]; Table 2): −1.7 °C | Boiling point ([1]; Table 4): −1.7 °C | Boiling point [1]: −1.7 C | Boiling point ([1]; listed as perfiiuorobutane): −1.7 °C

OCC(F)(F)C(F)(C(F)(F)F)C(F)(F)C(F)(F)C(F)(F)C(F)(C(F)(F)F)C(F)(F)F (stereo not drawn) [Perfluoro-3,7-dimethyloctan-1-ol, 3,7-Bis(trifluoromethyl)tridecafluorooctanol]
Solubility [6]: Insoluble in | Boiling point ([1]; 20 mmHg): 95° C./20

FC(F)(F)C(F)(F)C(F)(F)C(F)(F)C(F)(F)C(F)(F)C(F)(F)C(F)(F)F [Perfluorooctane, Octadecafluorooctane]
Den [2]: 1.77 g/mL | Specific Gravity [2]: 1.73 | Enthalpy of Vap. H [4]: 76 kJ/kg | Viscosity [5]: 1.800 cPs | Boiling point ([1]; Table 1): 377 °C | Boiling point ([1]; Table 2): 103.0 °C | Boiling point ([1]; Table 4): 103.0 °C | Boiling point [1, 9]: 103-104 °C

FC(F)(F)C(F)(C(F)(F)F)C(F)(C(F)(F)F)C(F)(F)F [Perfluoro-(2,3-Dimethylbutane), 1,1,1,2,3,4,4,4-Octafluoro-2,3-bis(trifluoromethyl)butane]
Specific Gravity [2]: 1.7729

FCC(F)(F)F [HFA 134a ™]
Boiling point [1, 11]: −26

FC(F)C(F)(F)C(F)(F)C(F)(F)C(F)(F)C(F)F [1H,6H-Perfluorohexane, Dodecafluorohexane]
Boiling point [1, 9]: 93 °C

FC(F)(F)C(F)(F)C(F)(F)C(F)(F)C(F)(F)C(F)(F)C(F)(F)C(F)(F)Br [Perfluorooctylbromide]
Boiling point [1, 10]: 142 °C | Boiling point ([1]; Table 2): 142 °C | Boiling point ([1]; Table 4): 142 °C

OCC(F)(F)F [2,2,2-trifluoroethanol]
Boiling point [1, 10]: 78 °C

FC(F)C(F)(F)C(F)(F)C(F)(F)C(F)(F)C(F)(F)C(F)(F)C(F)F [1H,8H-Perfluorooctane, Hexadecafluorooctane]
Boiling point [1, 9]: 134 °C

FC(F)(F)C(F)(F)C(F)(F)C(F)(F)C(F)(F)F [perfluoropentane]
Den [2]: 1.59 g/mL | O2 Solubility [7]: 54 ml/100 ml | Specific Heat ([3]; chilled aerosolized liquid): 1.05 KJ/Kg*C | Spec Ht gas C [3]: 1.02 KJ/Kg/C | Spec. Ht Liq C [3]: 1.05 KJ/Kg/C | Enthalpy of Vap. H [4]: 94 kJ/kg | enthalpies of vaporization [4]: 94 kJ/kg | Viscosity [5]: 0.460 cPs | Boiling point [1, 10]: 28.0 °C | Boiling point ([1]; Table 1): 30 °C | Boiling point ([1]; Table 2): 28.0 °C | Boiling point ([1]; Table 4): 28.0 °C | Boiling point ([1]; running text): 30 C

OCC(F)(F)C(F)(F)C(F)(F)C(F)(F)F [1H, 1H-Perfluoro-1-pentanol, 1H, 1H-Nonafluoro-1-pentanol]
Boiling point [1, 9]: 110-111 °C

FC(F)(F)C(F)(F)C(F)(F)C(F)(F)C(F)(F)C(F)(F)C(F)(F)F [perfluoroheptane, Hexadecafluoroheptane]
Den [2]: 1.75 g/mL | Specific Gravity [2]: 1.72 | Spec Ht gas C [3]: 0.82 KJ/Kg/C | Spec. Ht Liq C [3]: 0.64 KJ/Kg/C | Enthalpy of Vap. H [4]: 90 kJ/kg | Viscosity [5]: 0.900 cPs | Boiling point [1, 10]: 56.0 °C | Boiling point ([1]; Table 1): 82 °C | Boiling point ([1]; Table 2): 56.0 °C | Boiling point ([1]; Table 4): 56.0 °C | Boiling point [1, 9]: 80-82 °C

FC(F)(F)C(F)(F)C(F)(F)C(F)(F)C(F)(F)C(F)(F)F [C6F14]
Den [2]: 1.69 g/mL | Spec Ht gas C [3]: 0.78 KJ/Kg/C | Spec. Ht Liq C [3]: 0.71 KJ/Kg/C | Enthalpy of Vap. H [4]: 93 kJ/kg | Viscosity [5]: 0.979 cPs | Boiling point ([1]; Table 1): 69 °C

FC(F)C(F)(F)C(F)(F)C(F)(F)C(F)(F)F [1H-Perfluoropentane, Undecafluoropentane]
Boiling point [1, 9]: 42 °C

COC(F)(F)C(F)(F)C(F)(F)C(F)(F)F [methyl perfluorobutylether]
Boiling point [1, 10]: 60 °C

FC1(F)C(F)(F)C(F)(F)C2(F)C(F)(C1(F)F)C(F)(F)C(F)(F)C1(F)C(F)(F)C(F)(F)C(F)(F)C(F)(F)C12F (stereo not drawn) [Perfluoroperhydrophenanthrene]
Boiling point [1, 10]: 215 °C | Boiling point ([1]; Table 2): 215 °C | Boiling point ([1]; Table 4): 215 °C

FC(F)(F)C(F)(F)C(F)(F)C(F)(F)C(F)(F)C(F)(F)C(F)(F)C(F)(F)C(F)(F)F [Perfluorononane, Eicosafluorononane]
Specific Gravity [2]: 1.799

FC(F)C(F)(F)C(F)(F)C(F)(F)C(F)(F)C(F)(F)C(F)(F)C(F)(F)F [1H-Perfluorooctane, Heptadecafluorooctane]
Boiling point [1, 9]: 117 °C

FC(F)C(F)(F)C(F)(F)C(F)(F)C(F)(F)C(F)(F)F [1H-Perfluorohexane, Tridecafluorohexane]
Boiling point [1, 9]: 70 °C

Perfluoro(triethylene glycol dimethyl ether) [Perfluorotriglyme]
Boiling point [1, 9]: 106 °C

FC1(F)C(F)(F)C(F)(F)C2(F)C(F)(F)C(F)(F)C(F)(F)C(F)(F)C2(F)C1(F)F (stereo not drawn) [Perfluorodecalin, Octadecafluorodecalin]
Vapor Pressure [8]: 6 torr @ 20 °C | Den [2]: 1.92 g/mL | O2 Solubility [7]: 49 ml/100 ml | Spec. Ht Liq C [3]: 1.05 KJ/Kg/C | Enthalpy of Vap. H [4]: 85 kJ/kg | Viscosity [5]: 5.100 cPs

FC(F)(F)C(F)(F)C(F)(F)F [perfluoropropane]
Boiling point [1, 10]: −36.7 °C | Boiling point ([1]; Table 2): −36.7 °C | Boiling point ([1]; Table 4): −36.7 °C

FC(F)(F)C(F)(F)C(F)(F)C(F)(F)C(F)(F)N(C(F)(F)C(F)(F)C(F)(F)C(F)(F)C(F)(F)F)C(F)(F)C(F)(F)C(F)(F)C(F)(F)C(F)(F)F [perfluorotripentyl amine]
Boiling point [1, 10]: 215 °C | Boiling point ([1]; Table 2): 215 °C | Boiling point ([1]; Table 4): 215 °C

Perfluoro(triethylene glycol dimethyl ether) [Perfluorotetraglyme]
Boiling point [1, 9]: 138 °C
